The record followed here is patent US20240317749A1, “THERAPEUTIC COMPOUNDS” (priority 2021, published 2024).

The structures appear in SMILES notation. Converted amounts (≈) assume the structure as drawn.

Assay [1] relates to Methicillin-susceptible S. aureus (MSSA) ATCC 19636. Nature of the assay: MIC assay, CLSI broth microdilution in CAMH broth. The class given is cell-based, Staphylococcus aureus. On the procedure: (§1) MIC assays for various Gram-negative and Gram-positive strains were conducted in accordance with the CLSI guidelines for broth microdilution. A 96-well plate containing CAMH broth with 2-fold serial dilution of compounds was inoculated with log-phase bacterial at 5×10^5 CFU/mL. The final volume in each well was 100 μL. Each compound was tested in duplicate. The microtiter plates were incubated in an aerobic environment for 18 hours at 37° C. Then the bacterial growth was tested by reading the plate with a SpectraMax iD5 plate reader (Molecular Devices, Inc.) at 600 nm. The MIC was defined as the lowest compound concentration that inhibited bacteria growth.
(§2) The following Gram-negative and Gram-positive strains were used in the aerobic MIC procedure: • P. aeruginosa ATCC 27853 • A. baumannii ATCC 19606 • E. coli ATCC 25922 • E. coli W4573 • E. coli N43 • K. pneumoniae ATCC 10031 • K. pneumoniae ATCC 13883 • S. sonnei ATCC 29930 • P. mirabilis ATCC 29906 • Methicillin-susceptible S. aureus (MSSA) ATCC 19636 • Methicillin-resistant S. aureus (MRSA) ATCC 33951

The test system of assay [2] is K. pneumoniae ATCC 10031. As to the kind of experiment: MIC assay, CLSI broth microdilution in CAMH broth. In kind it is cell-based, Klebsiella pneumoniae. Conditions: K. pneumonias ATCC 10031. On the procedure: as §1, §2
The subject of assay [3] is K. pneumoniae ATCC 13883. Nature of the assay: MIC assay, CLSI broth microdilution in CAMH broth. In kind it is cell-based, Klebsiella pneumoniae. The settings on record: K. pneumonias ATCC 13883. The procedure:
as §1, §2

For assay [4], the system named is E. coli N43. Nature of the assay: MIC assay, CLSI broth microdilution in CAMH broth. The class given is cell-based, Escherichia coli. On the procedure:
as §1, §2

Assay [5] concerns E. coli ATCC 25922. Nature of the assay: MIC assay, CLSI broth microdilution in CAMH broth. The class given is cell-based, Escherichia coli. The procedure: as §1, §2
For assay [6], the system named is E. coli W4573. As to the kind of experiment: MIC assay, CLSI broth microdilution in CAMH broth. In kind it is cell-based, Escherichia coli. On the procedure: as §1, §2
The subject of assay [7] is P. aeruginosa ATCC 27853. As to the kind of experiment: MIC assay, CLSI broth microdilution in CAMH broth. The class given is cell-based, Pseudomonas aeruginosa. The settings on record: P. aeruginosa ATCC 278538. On the procedure: as §1, §2
For assay [8], the system named is Methicillin-resistant S. aureus (MRSA) ATCC 33591. Nature of the assay: MIC assay, CLSI broth microdilution in CAMH broth. In kind it is cell-based, Staphylococcus aureus. The procedure:
as §1, with “growth. […]” for “growth.”

Assay [9] deals with P. mirabilis ATCC 29906. As to the kind of experiment: MIC assay, CLSI broth microdilution in CAMH broth. The class given is cell-based, Proteus mirabilis. The procedure:
as §1, §2

In assay [10] the test system is N. gonorrhoeae ATCC 49226. Nature of the assay: MIC assay for N. gonorrhoeae, broth microdilution in Todd-Hewitt (TH) broth. The settings on record: Neisseria gonorrhoeae, ATCC49226; Antibacterial Activity against N. gonorrhoeae ATCC 49226 in TH. The class given is cell-based. The source says:
MIC assays for N. gonorrhoeae were done using the ATCC 49226 strain. The procedure guidelines recommended by the Clinical and Laboratory Standards Institute (CLSI) for the broth microdilution MIC assay were modified by substituting […]. Also, the recommended bacterial inoculum was modified to meet the high inoculum demands needed for N. gonorrhoeae growth. A 96-well plate containing TH broth with 2-fold serial dilution of compounds was inoculated with log-phase bacterial at 2.5×10^7 CFU/mL. The final volume in each well was 200 μL. Each compound was tested in duplicate. The microtiter plates were incubated in an […] environment for 24 hours at 37° C. using the candle jar technique. Then the bacterial growth was tested by reading the plate with a SpectraMax iD5 plate reader (Molecular Devices, Inc.) at 600 nm. The MIC was defined as the lowest compound concentration that inhibited bacteria growth.

For the compound `CC[C@H]1OC(=O)[C@H](C)[C@@H](O[C@H]2C[C@@](C)(OC)[C@@H](O)[C@H](C)O2)[C@H](C)[C@@H](O[C@@H]2O[C@H](C)C[C@H](N(C)C)[C@H]2O)[C@](C)(O)C[C@@H](C)CN(C)[C@H](C)[C@@H](O)[C@]1(C)O` [AZM, azithromycin, reference compound], the “Intrinsic MIC in CAMH” value in [1] is reported as 1¤; in [2], 2¤; in [3], 32¤; in [4], 1¤; in assay [5], 8¤; in assay [6], 4¤. For the same compound, the “Intrinsic MIC in CAMH” value in assay [7] is on record as 64¤; in assay [8], 1¤; in assay [9] it was 64¤.

With `Nc1nc(N)c2ccc3c(ccn3Cc3ccccc3Br)c2n1` [Example 4, 7-(2-bromobenzyl)-7H-pyrrolo[2,3-h]quinazoline-2,4-diamine], the “Intrinsic MIC in CAMH” value in [1] is ≤0.125¤; in [2] it was <0.125¤; in assay [3], 8¤; in assay [5] it was 4¤; in assay [6], 2¤; in assay [7] it was >64¤. The “Intrinsic MIC in CAMH” value is ≤0.125¤ in assay [8] and >64¤ in assay [9]. The MIC in assay [10] stood at 2 µg/mL (≈ 5.43 µM).

As to `Nc1nc(N)c2ccc3c(ccn3CC3CCCCC3)c2n1` [Example 27, 7-(cyclohexylmethyl)-7H-pyrrolo[2,3-h]quinazoline-2,4-diamine], the “Intrinsic MIC in CAMH” value is ≤0.125¤ in assay [1]; <0.125¤ in [2]; 4¤ in assay [3]; 4¤ in assay [5]; 2¤ in assay [6]; >64¤ in assay [7]. Also, the “Intrinsic MIC in CAMH” value is reported as ≤0.125¤ in [8] and >64¤ in assay [9]. In assay [10], this compound had a minimum inhibitory concentration (MIC) of 4 µg/mL (≈ 13.5 µM).

Take `Nc1nc(N)c2ccc3c(ccn3Cc3ccc(-c4ccccc4C(F)(F)F)cc3)c2n1` [Example 36, 7-((2′-(trifluoromethyl)-[1,1′-biphenyl]-4-yl)methyl)-7H-pyrrolo[2,3-h]quinazoline-2,4-diamine]: the “Intrinsic MIC in CAMH” value was 0.5¤ in assay [1]; 1¤ in assay [2]; >64¤ in assay [3]; <0.125¤ in [4]; 8¤ in [6]; >64¤ in assay [7]. The results for the “Intrinsic MIC in CAMH” value in assay [8] and in assay [9] were 0.5¤ and >64¤, respectively. Further, the minimal inhibitory concentration (MIC) in assay [10] is 8 µg/mL (≈ 18.5 µM).

For the compound `N#Cc1cc(F)ccc1-c1ccc(Cn2ccc3c4nc(N)nc(N)c4ccc32)cc1` [Example 37, 4′-((2,4-diamino-7H-pyrrolo[2,3-h]quinazolin-7-yl)methyl)-4-fluoro-[1,1′-biphenyl]-2-carbonitrile], the “Intrinsic MIC in CAMH” value in assay [1] was 0.125¤; in assay [2], 0.25¤; in assay [3] it was >64¤; in assay [4] it was <0.125¤; in [6] it was 8¤; in assay [7] it was >64¤. The results for the “Intrinsic MIC in CAMH” value in [8] and in [9] were 0.125¤ and >64¤, respectively. The compound further gave an MIC in assay [10] of 1 µg/mL (≈ 2.45 µM).

Regarding `Nc1nc(N)c2ccc3c(ccn3Cc3ccc(C#Cc4ccccc4)cc3)c2n1` [Example 43, 7-(4-(phenylethynyl)benzyl)-7H-pyrrolo[2,3-h]quinazoline-2,4-diamine], the “Intrinsic MIC in CAMH” value in [1] was 32¤; in [2], >64¤; in assay [3], >64¤; in [4], 32¤; in assay [6] it was >64¤; in assay [7] it was >64¤. In addition, the “Intrinsic MIC in CAMH” value was 2¤ in assay [8] and >64¤ in [9]. In assay [10], the minimum inhibitory concentration (MIC) was > 64 µg/mL.
